Data published in PubChem BioAssay AID248 (DTP/NCI, 2004).
Several values for one entry are separate records, joined by “and”; a condition that tells them apart may be missing. Identical values can stand only once. Toxic doses and inconclusive results are not listed.

System: L1210 leukemia ip in BDF1 mice, survival T/C
Assay: NCI In Vivo Anticancer Drug Screen. Data for tumor model L1210 Leukemia (intraperitoneal) in B6D2F1 (BDF1) mice
Conditions: endpoint: mean survival time, higher = longer survival
Method in brief: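 In this screen, tumor-bearing mice given compound are compared to those given vehicle, and their survival values are reported as a treated-to-control quotient.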

[1] = dose: 100.0 mg/kg/injection, schedule: Q04DX003 (ip), vehicle: saline with Tween-80
[2] = dose: 200.0 mg/kg/injection, schedule: Q04DX003 (ip), vehicle: saline with Tween-80

Structure (SMILES): CC(C)[PH+]1c2ccccc2-c2ccccc21.CC(C)[PH+]1c2ccccc2-c2ccccc21.[Cl][Pt][Cl]
- T/C (dose: 12.5 mg/kg/injection, schedule: Q04DX003 (ip), vehicle: saline with Tween-80): 98 % of control
- T/C (dose: 25.0 mg/kg/injection, schedule: Q04DX003 (ip), vehicle: saline with Tween-80): 98 % of control
- T/C (dose: 50.0 mg/kg/injection, schedule: Q04DX003 (ip), vehicle: saline with Tween-80): 98 % of control

Structure (SMILES): OCc1cc(Cl)ccc1O
- T/C (dose: 100.0 mg/kg/injection, schedule: Q01DX009 (ip), vehicle: other): 91 % of control
- T/C (dose: 100.0 mg/kg/injection, schedule: Q04DX003 (ip), vehicle: other): 103 % of control
- T/C (dose: 200.0 mg/kg/injection, schedule: Q01DX009 (ip), vehicle: other): 120 % of control
- T/C (dose: 200.0 mg/kg/injection, schedule: Q04DX003 (ip), vehicle: other): 95 % of control
- T/C (dose: 400.0 mg/kg/injection, schedule: Q04DX003 (ip), vehicle: other): 93 % of control

Structure (SMILES): O=C(OCC1OC(OC2(COC(=O)c3ccccc3)OC(COC(=O)c3ccccc3)C(OC(=O)c3ccccc3)C2OC(=O)c2ccccc2)C(OC(=O)c2ccccc2)C(OC(=O)c2ccccc2)C1OC(=O)c1ccccc1)c1ccccc1 (stereo not given)
- T/C (dose: 100.0 mg/kg/injection, schedule: Q01DX009 (ip), vehicle: saline with Tween-80): 95 % of control
- T/C (dose: 200.0 mg/kg/injection, schedule: Q01DX009 (ip), vehicle: saline with Tween-80): 92 % of control
- T/C (dose: 400.0 mg/kg/injection, schedule: Q01DX009 (ip), vehicle: saline with Tween-80): 92 % of control

Structure (SMILES): C1=C(c2ccccc2)N2CCN=C2S1
- T/C (dose: 50.0 mg/kg/injection, schedule: Q01DX001 (ip), vehicle: carboxymethylcellulose (CMC)): 100 % of control

Structure (SMILES): CC(C)(C)C1CCC(NC(=O)N(CCCl)N=O)CC1 (stereo not given)
- T/C (dose: 16.0 mg/kg/injection, schedule: Q01DX001 (ip), vehicle: other): 116 % of control
- T/C (dose: 125.0 mg/kg/injection, schedule: Q01DX001 (ip), vehicle: other): 198 % of control
- T/C (dose: 177.0 mg/kg/injection, schedule: Q01DX001 (ip), vehicle: other): 264 % of control
- T/C (dose: 250.0 mg/kg/injection, schedule: Q01DX001 (ip), vehicle: other): 259 % of control and 283 % of control
- T/C (dose: 354.0 mg/kg/injection, schedule: Q01DX001 (ip), vehicle: other): 272 % of control
- T/C (dose: 375.0 mg/kg/injection, schedule: Q01DX001 (ip), vehicle: other): 275 % of control
- T/C (dose: 500.0 mg/kg/injection, schedule: Q01DX001 (ip), vehicle: other): 200 % of control and 317 % of control
- T/C (dose: 708.0 mg/kg/injection, schedule: Q01DX001 (ip), vehicle: other): 106 % of control
- T/C (dose: 750.0 mg/kg/injection, schedule: Q01DX001 (ip), vehicle: other): 170 % of control and 252 % of control
- T/C (dose: 1000.0 mg/kg/injection, schedule: Q01DX001 (ip), vehicle: other): 86 % of control
- T/C (dose: 1250.0 mg/kg/injection, schedule: Q01DX001 (ip), vehicle: other): 219 % of control
- T/C (dose: 2000.0 mg/kg/injection, schedule: Q01DX001 (ip), vehicle: other): 98 % of control

Structure (SMILES): CCOC(=O)c1nc(N)n[nH]1
- T/C [1]: 106 % of control
- T/C [2]: 104 % of control
- T/C (dose: 400.0 mg/kg/injection, schedule: Q04DX003 (ip), vehicle: saline with Tween-80): 101 % of control

Structure (SMILES): COc1ccc2c(c1C)CCC1(CO)CC(C)=CCC21 (stereo not given)
- T/C (dose: 100.0 mg/kg/injection, schedule: Q01DX009 (ip), vehicle: saline sonified): 93 % of control
- T/C (dose: 200.0 mg/kg/injection, schedule: Q01DX009 (ip), vehicle: saline sonified): 94 % of control
- T/C (dose: 400.0 mg/kg/injection, schedule: Q01DX009 (ip), vehicle: saline sonified): 91 % of control

Structure (SMILES): CCCCN(CCCl)C1c2ccccc2-c2ccccc21
- T/C (dose: 25.0 mg/kg/injection, schedule: Q04DX002 (ip), vehicle: Klucel (hydroxypropylcellulose) (HPC)): 106 % of control
- T/C (dose: 50.0 mg/kg/injection, schedule: Q04DX002 (ip), vehicle: Klucel (hydroxypropylcellulose) (HPC)): 95 % of control

Structure (SMILES): CC(C)CCOc1ccc(N)c([N+](=O)[O-])c1
- T/C (dose: 6.25 mg/kg/injection, schedule: Q01DX009 (ip), vehicle: saline with Tween-80): 105 % of control
- T/C (dose: 12.5 mg/kg/injection, schedule: Q01DX009 (ip), vehicle: saline with Tween-80): 100 % of control
- T/C (dose: 25.0 mg/kg/injection, schedule: Q01DX009 (ip), vehicle: saline with Tween-80): 103 % of control
- T/C (dose: 50.0 mg/kg/injection, schedule: Q01DX009 (ip), vehicle: saline with Tween-80): 94 % of control
- T/C [1]: 97 % of control
- T/C [2]: 100 % of control

Structure (SMILES): COC(=O)c1ccc[n+](C)c1
- T/C (dose: 100.0 mg/kg/injection, schedule: Q04DX002 (ip), vehicle: saline): 104 % of control
- T/C (dose: 200.0 mg/kg/injection, schedule: Q04DX002 (ip), vehicle: saline): 101 % of control
